The values below come from patent US11110158B2, “Prostate-associated antigens and vaccine-based immunotherapy regimens” (Pfizer Inc., priority 2012, dated 2021).

Data set [1] has as its system rHER2. Description: IFNγ ELISPOT, rHER2 DNA vaccine with CpG7909 or anti-CD40 in BALB/c mice. In kind it is in vivo, mouse. Particulars: FIG. 40; intradermal after PMED; CpG7909 50 g or anti-CD40 100 ug as printed; versus control antibodies; 7 days after PMED. How it is done: The effect of local administration of immune modulators on the magnitude and quality of antigen specific immune responses induced by a cancer was investigated in BALB/c mice, in which the immune response was assessed by measuring rHER2 specific T cell responses using the IFNγ ELISPOT assay or intracellular cytokine staining assay. Briefly, 4 to 6 female BALB/c mice per group as indicated were immunized with DNA plasmid expression constructs encoding rHER2 antigen sequences (SEQ ID NO:54) by PMED delivery system. […] Antigen specific T cell responses were measured by IFNγ […]ELISPOT or intracellular cytokine staining assay according to the procedure described below.
Briefly, each mouse per treatment group (n=4) was immunized with DNA plasmid expression constructs encoding rHER2 antigen sequences (SEQ ID NO:54) by PMED immediately followed by either 100 ug of control rat IgG monoclonal antibody (Bioxcell #BE0089: control mAb) or 50 g CpG7909 or 100 ug of anti-CD40 monoclonal antibody (Bioxcell #BE0016-2: a-CD40 mAb) as indicated. The antigen specific immune responses were measured by IFNγ ELISPOT assay from 5e5 splenocytes mixed with control or rHer-2 specific p66 peptides at 10 µg/ml concentration, 7 days after the PMED actuation. […]

In data set [2] the test system is rHER2. The experiment in a line: Intracellular cytokine staining, rHER2 DNA vaccine with CpG 7909 or anti-CD40 in BALB/c mice. It counts as in vivo, rat. The conditions noted are these: FIGS. 41A, 41B; CpG 7909 intradermal after both PMED immunizations, versus PBS. How it is done: The effect of local administration of immune modulators on the magnitude and quality of antigen specific immune responses induced by a cancer was investigated in BALB/c mice, in which the immune response was assessed by measuring rHER2 specific T cell responses using the IFNγ ELISPOT assay or intracellular cytokine staining assay. Briefly, 4 to 6 female BALB/c mice per group as indicated were immunized with DNA plasmid expression constructs encoding rHER2 antigen sequences (SEQ ID NO:54) by PMED delivery system. The immune modulators, CpG7909 (PF-03512676) and anti-CD40 monoclonal agonistic antibody, were administered locally by intradermal injections in proximity to the vaccine draining inguinal lymph node subsequently after the PMED actuations. Antigen specific T cell responses were measured by IFNγ […]ELISPOT or intracellular cytokine staining assay according to the procedure described below.
The rHer-2 specific polyfunctional (multi-cytokine positive) T cell immune responses were measured from splenocytes or PBMCs isolated from individual animals by ICS assay. […] The total number of antigen specific single, double or triple cytokine positive T cells per total spleen of each animal is calculated by subtracting the rHer-2 specific responses to the irrelevant peptide HBV from the vaccine specific responses and normalized to the total number of splenocytes isolated from the spleen.

Another data set deals with human PSMA. The experiment in a line: IFNγ ELISPOT of PBMCs, PSMA DNA electroporation with or without CpG in Chinese cynomolgus macaques, human PSMA peptide pools. It counts as in vivo, cynomolgus macaque. The conditions noted are these: for animals that failed to produce high responses: intramuscular right after electroporation on day 0; for animals with modestly higher total response to the PSMA peptides: 3 days after DNA electroporation, cynomolgus. How it is done:
(§1) Six groups of Chinese cynomolgus macaques, six (#1 to 6) per each test group, were immunized with a plasmid DNA encoding the human PSMA modified antigen (amino acids 15-750 of SEQ ID NO:1) delivered by electroporation. Briefly, all animals received bilateral intramuscular injections of 5 mg of plasmid DNA followed by electroporation (DNA EP) on day 0. Subsequently right after the electroporation, group 2 received bilateral intramuscular injections of 2 mg of CpG mixed with 1 mg Alum in proximity to the DNA injection sites. Group 3 and 4 received bilateral intramuscular injections of 2 mg of CpG delivered without alum in proximity to the DNA injection sites either on day 0 or day 3, respectively. Group 5 received 2 mg of bilateral intradermal injections of CpG delivered in proximity to the vaccine draining inguinal nodes on day 3. Group 6 received bilateral injections of 200 μg of CpG mixed with the DNA solution which was co-electroporated into the muscle on day 0.
Peripheral blood samples were collected from each animal fifteen days after the DNA immunization. Peripheral blood mononuclear cells (PBMCs) were isolated from the blood samples and were subjected to an IFNγELISPOT assay to measure the PSMA specific T cell responses. Briefly, 4e5 PBMCs from individual animals were plated per well with pools of PSMA specific peptides or nonspecific control peptides (human HER2 peptide pool) each at 2 ug/ml in IFNγELISPOT plates. The plates were incubated for 16 hrs at 37° C. and 5% CO2 and washed and developed after incubation as per manufacturer's instruction. The number of IFNγ spot forming cells (SFC) were counted by CTL reader. Each condition was performed in duplicates. […] ND indicates not determined.

Another data set concerns rhesus PSMA. Description: IFNγ ELISPOT of PBMCs, PSMA DNA electroporation with or without CpG in Chinese cynomolgus macaques, rhesus PSMA peptide pools. In kind it is in vivo. Particulars: group 6: 200 μg CpG co-electroporated, compared to animals that did not receive CpG (group 1); P<0.05. How it is done:
as §1
Peripheral blood samples were collected from each animal fifteen days after the DNA immunization. Peripheral blood mononuclear cells (PBMCs) were isolated from the blood samples and were subjected to an IFNγELISPOT assay to measure the PSMA specific T cell responses. […] The number of IFNγ spot forming cells (SFC) were counted by CTL reader. […] ND indicates not determined.

The conditions of data set [3]: cited from earlier work.
In a further data set the test system is LNCaP. Description: Antibody-dependent cell-mediated cytotoxicity, chromium 51 release, human PBMC effectors. It counts as cell-based. Particulars: target LNCaP (PSMA+); plasma 1:50 or control mAb. How it is done: (§2) An Indian rhesus macaque was immunized with a nucleic acid encoding a human PSMA modified antigen delivered by adenovirus (1e11 V.P. injected intramuscularly) followed by 2 PMED immunizations (8 actuations/immunization, 4 actuations per each right and left side of the lower abdomen) with 8 and 6 week intervals respectively. The animal also received intradermal injections of 3 mg of CpG (PF-03512676) in proximity to each inguinal draining lymph node at the time of the second PMED immunization. The antibody dependent cell-mediated cytotoxicity was determined from the plasma collected from the blood before any immunizations (pre-immune plasma) and 8 days after the last PMED immunization (immune plasma).
(§3) Antibody-dependent cell-mediated cytotoxicity was determined using the standard chromium 51 release assay. Human prostate cancer cell lines LNCaP and PC3 were used as target cells. Freshly isolated human PBMC cells were used as effector cells. Effectors to target cells were set at 30:1. Briefly, for one labeling reaction, 1.5×10^6 target cells in 200 ul were incubated with 200 μCi ^51Cr (37° C., 5% CO2 for 1 hour).

The test system of the next data set is PC3. Described as above. The conditions noted are these: target PC3 (PSMA negative); plasma 1:50 or control mAb. It counts as cell-based. How it is done: as §2, §3

Turning to “5′ TCGTCGTTTTGTCGTTTTGTCGTT3′ [CpG 7909]”, the “magnitude of antigen specific immune responses induced by rHer-2 DNA (IFNγ ELISPOT, p66 peptide)” value in the data set on rHER2 [1] is recorded as “significantly enhanced the magnitude of antigen specific immune responses”. Moreover, in the data set on rHER2 [2], the “rHer-2 specific multi-cytokine positive CD8 and CD4 T cell responses” value is given as “significant increase”. Moreover, the entries for the “animals that failed to produce high responses” value in the data set on human PSMA (group 2: CpG 2 mg mixed with 1 mg Alum) and in the data set with human PSMA (group 3: CpG 2 mg without alum) were 4/6 and 3/6, respectively. Moreover, the figures for the “animals with modestly higher total response to the PSMA peptides” value in the data set with human PSMA (group 4: CpG 2 mg bilateral intramuscular) and in the data set with human PSMA (group 5: CpG 2 mg bilateral intradermal) were 3/6 and 2/6, respectively. Further, the “animals with higher net responses” value with human PSMA (group 6: 200 μg CpG co-electroporated with the DNA solution into the muscle) is 4/6. In addition, the “response to peptide pool H1” value in the data set with human PSMA (group 6: 200 μg CpG co-electroporated, compared to animals that did not receive CpG (group 1), P<0.05) is reported as “statistically higher response”. In addition, in the data set on rhesus PSMA, the “response to peptide pool R1” value is recorded as “statistically higher response”. Also, the “single intravenous dose well tolerated with no clinical effects and no significant toxicity” value in data set [3] (patients with previously treated chronic lymphocytic leukemia) is recorded as “up to 1.05 mg/kg”. In addition, the dose limiting toxicity entry in data set [3] (single dose subcutaneous) is “myalgia and constitutional effects”. Further, the “maximum tolerated dose (MTD)” value in data set [3] (single dose subcutaneous) is given as 0.45 mg/kg.

With “Rituxan: monoclonal against B cell antigen (CD20), negative control antibody”, the “Percent specific lysis at E:T of 30:1” value with LNCaP is given as 8.99%; with PC3 it was 0%.
